# Reference: article PMC2785468, “Androgen Receptor Mutations Associated with Androgen Insensitivity Syndrome: A High Content Analysis Approach Leading to Personalized Medicine” (PLoS ONE, 2009)
# Molecular target: T1, AR-R840C (Homo sapiens, UniProt P10275, R841C)
# T1 construct: expressed in transfected cells
# T1 sequence (P10275 1-920 R841C): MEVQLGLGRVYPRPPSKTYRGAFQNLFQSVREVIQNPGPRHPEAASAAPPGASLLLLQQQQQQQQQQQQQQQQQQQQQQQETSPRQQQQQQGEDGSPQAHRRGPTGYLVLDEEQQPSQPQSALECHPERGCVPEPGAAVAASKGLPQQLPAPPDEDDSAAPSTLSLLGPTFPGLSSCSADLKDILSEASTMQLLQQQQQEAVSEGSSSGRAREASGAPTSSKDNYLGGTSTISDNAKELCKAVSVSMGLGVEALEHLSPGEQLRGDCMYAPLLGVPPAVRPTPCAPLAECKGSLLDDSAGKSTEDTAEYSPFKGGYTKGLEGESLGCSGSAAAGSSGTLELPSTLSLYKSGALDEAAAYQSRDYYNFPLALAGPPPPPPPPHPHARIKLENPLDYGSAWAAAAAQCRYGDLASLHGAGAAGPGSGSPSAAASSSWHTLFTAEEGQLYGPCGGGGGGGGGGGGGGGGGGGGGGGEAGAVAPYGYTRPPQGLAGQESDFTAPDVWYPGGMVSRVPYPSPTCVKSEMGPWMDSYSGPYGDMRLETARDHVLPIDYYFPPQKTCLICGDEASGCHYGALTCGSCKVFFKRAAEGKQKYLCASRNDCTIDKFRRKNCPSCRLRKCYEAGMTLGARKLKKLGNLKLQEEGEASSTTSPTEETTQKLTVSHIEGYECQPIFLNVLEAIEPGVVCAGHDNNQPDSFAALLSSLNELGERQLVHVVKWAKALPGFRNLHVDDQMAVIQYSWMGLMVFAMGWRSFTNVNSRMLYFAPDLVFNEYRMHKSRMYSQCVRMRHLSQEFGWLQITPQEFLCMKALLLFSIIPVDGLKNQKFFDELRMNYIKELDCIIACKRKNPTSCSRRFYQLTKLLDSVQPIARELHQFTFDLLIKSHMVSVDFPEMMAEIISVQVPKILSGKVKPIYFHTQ
# Assay type: cell-based
# Method: To determine the global effect of the various AIS mutations on AR signaling, each was analyzed using HCA. This technology allows simultaneous quantification of AR protein expression, nuclear translocation, subnuclear patterning, and transcriptional activity. The analysis was done in HeLa cell lines stably transfected with wild type or mutant ARs fused with green fluorescent protein, or using AR immunofluorescence in primary cultures of genital skin fibroblasts generated from foreskin biopsies of historical AIS patients, or of normal neonates undergoing circumcision at birth. To prevent the effects of receptor over-expression, stable HeLa cells were carefully selected to express AR levels similar to LNCaP as previously described. Prior to ligand treatment, HeLa cells were transfected with the pARR2PB-dsRED2skl reporter plasmid, consisting of the AR responsive promoter ARR2PB [31] driving expression of the red fluorescent protein reporter dsRED2skl engineered to target peroxisomes.
# For studies utilizing HeLa GFP-AR cell lines, twenty-four hours before transfection with pARR2PB-dsRED2skl, cells were plated onto 100 mm plastic dishes in medium supplemented with 5% charcoal-stripped and dialyzed-FBS. Transient introduction of the pARR-2PB-dsRED2skl reporter construct was performed using 6.0 µg reporter plasmid and 6.0 µg carrier DNA (BlueScript, Stratagene, San Diego, CA) using Transfectin (Biorad) following standard protocols. After 8-hour incubation, DNA/lipid complexes were removed. Cells were then trypsinized and replated at 10,000 cells per well in Nunc poly-D-lysine treated 96-well optical glass bottom plates and incubated an additional 12 hours to allow for cell adhesion. […] Compound dilutions and final addition to multi-well plates were performed using a Beckman Biomek NX robotic platform to ensure repeatability from experiment to experiment. After incubation was complete, using the Biomek NX robot, plates were washed with PBS and fixed for 20 min at RT in 4% formaldehyde prepared in CSK buffer (80 mM potassium PIPES, pH 6.8, 5 mM EGTA, 2 mM MgCl2). After fixation, cells were briefly permeabilized (5 min) with 0.5% Triton-X and prepared for imaging by washing in PBS, aspirating the washed solution, and adding a 1 ng/ml DAPI solution to stain DNA and a generic protein stain (CellMask, Invitrogen) to facilitate cell and nuclear image segmentation. Cells were imaged in PBS.
# Cells were imaged using the Cell Lab IC-100 Image Cytometer (IC-100; Beckman Coulter) platform that consists of 1) Nikon Eclipse TE2000-U Inverted Microscope (Nikon; Melville, NY); 2) Chroma 82000 triple band filter set (Chroma; Brattleboro, VT); 3) an imaging camera: Hamamatsu ORCA-ER Digital CCD camera (Hamamatsu; Bridgewater, NJ); and 4) a focusing camera: Photonics COHU Progressive scan camera (Photonics; Oxford, MA). […] In general, 49 to 64 images were captured per well for image analysis.
# While our initial AR studies using HTM were based upon CytoShop (Beckman-Coulter), [15], [33], these approaches were refined in the current work with the more robust server-client Pipeline Pilot image analysis platform (Basic and Advanced Imagine Collections, Pipeline Pilot 7.5, Accelrys, San Diego). Initially, the background signal was removed from all images using plate- and channel-specific correction images, generated by the sum projection of >600 randomly selected images for each channel from the image set. This allows for a pixel-by-pixel background subtraction that compensates any consistent uneven background artifacts in the image set. Furthermore, users are able to customize the degree of background subtraction by applying a multiplier to each correction image, useful for identification of objects such as nuclei or cell borders. After background subtraction, nuclear masks were generated using a combination of non-linear least squares and watershed-from-markers image manipulations of the DAPI images (Fig. 1B).
smiles,measurement,setting,value
"C[C@@H]1CC2=CC(=O)CC[C@@H]2[C@H]2CC[C@@]3(C)[C@@H](CC[C@]3(C)O)[C@@H]21 [Mb, Mibolerone]",hyperspeckling,HeLa AR-R840C,8 fold increase
same,transcriptional activation,HeLa AR-R840C,11 fold
same,increase in nuclear translocation,"HeLa AR-R840C, vs untreated",29%
same,"Nuclear Translocation, Max","HeLa R840C, % signal present in the nucleus",63.7±1.1%
same,"Hyperspeckling, Max","HeLa R840C, absolute numerical measurement",269±20
same,"Transcriptional Activity, Max","HeLa R840C, pARR2PB-dsRED2skl reporter, absolute numerical measurement",35.3±1.4
